# Test results taken from patent US12584904B2, “Methods for monitoring physiological status of a body organ” (BioCrine AB, priority 2012, dated 2026).
# “Also recorded” adds a separate entry of the source.
# What was measured:
# [1] = system: ob/ob mice; assay: Physiological measurements during leptin treatment of ob/ob mice; assay type: in vivo, mouse
# Protocol: (§1) Having witnessed the behavior of individual islets in response to food over-consumption and insulin resistance, we next questioned if this growth could be refrained or even reversed by treating the ob/ob mice with leptin. Mice were injected intraperitoneally every day between 3 and 4 months of age. The physiological effects of this treatment were monitored regularly using different parameters.
# Leptin treatment was performed by daily intraperitoneal injections of 1.5 μg/g body weight of recombinant human leptin (Amylin Pharmaceuticals), and sham treatment was performed by intraperitoneal injection of water instead of leptin.
# (§2) Body weight and blood glucose levels were measured in a minimum of 7 mice. Glucose concentrations were obtained using Accu-Chek™ Aviva monitoring system (Roche). Glucose tolerance tests were performed by intraperitoneal injection of 2 mg glucose per gram body weight in mice fasted for 16 hours (n≥5). Plasma insulin concentrations from a minimum of 3 mice per condition were measured using mouse insulin ELISA plates (Mercodia). Leptin treatment was performed by daily intraperitoneal injections of 1.5 μg/g body weight of recombinant human leptin (Amylin Pharmaceuticals), and sham treatment was performed by intraperitoneal injection of water instead of leptin.
# [2] = system: ob/ob mice; assay: Intraperitoneal glucose tolerance test after leptin treatment; assay type: in vivo, mouse
# Protocol: as §1, §2
# [3] = system: islet grafts in the anterior chamber of the eye of ob/ob mice; assay: Longitudinal in vivo confocal imaging of intraocular islet grafts under leptin treatment; design: species or system mouse
# Text: (§3) Islet grafts in mice were imaged in vivo at specific time points after transplantation. We used an upright laser scanning confocal microscope based on TCS-SP2-AOBS (Leica) with a long-distance water-dipping objective (Leica HXC-APO 10×/0.30NA), and a custom-built stereotaxic head holder allowing to position the mouse eye containing the engrafted islets towards the objective. Viscotears (Novartis) was used as immersion liquid between the eye and the objective, and isoflurane was used to anesthetize the mice during in vivo imaging. Imaging of islet morphology was done by laser illumination at 633 nm, and collection of backscattered light at the same wavelength.
# Islets were isolated from female donor mice and transplanted into the anterior chamber of the eye of male recipients, using a previously described technique (2). We anesthetized mice using isoflurane (Baxter), and approximately 10-20 islets were transplanted into the anterior chamber of the mouse eye. Islets used for transplantation were selected to be of similar size for each experiment, independent of the mouse genotype. The mice were injected subcutaneously with Temgesic™ (Schering-Plough) for postoperative analgesia.
# as §3, with “transplantation as previously described (2).” for “transplantation.”, “Viscotears™” for “Viscotears”, “wavelength. For visualization of blood vessels we injected 100 μl of a solution containing 2.5 mg/ml of 500 kDa FITC-labeled dextran (Invitrogen) into the tail vein, and imaged fluorescence using 496 nm excitation wavelength. Scanning speed and laser intensities were adjusted to avoid any cellular damage to the mouse eye or islet graft.” for “wavelength.”
# AutoQuant X2 (Media Cybernetics) was used for blind deconvolution of all in vivo confocal images before image analysis. Islet volume was analyzed based on the backscatter signal channel, using Matlab™ and the Image Processing Toolbox (Mathworks). The islet “equatorial volume”, i.e. the volume from the top of the islet down to the calculated equator, was used to represent the volume and calculate islet growth. We analyzed a minimum of 3 islet grafts per animal to determine islet growth, with a minimum of 3 mice per category. Individual vessel segments were identified at different imaging time points and their diameter measured using Volocity™ (Perkin Elmer). We established image analysis protocols in Volocity™ for automated analysis of histological sections. The average beta cell section area was obtained by dividing the insulin-stained area by the total number of DAPI-stained nuclei enclosed in this area (minimum of 1000 cells per tissue). Beta cell proliferation rate was obtained by counting Ki67-positive nuclei and dividing by the total number of DAPI-stained nuclei in insulin-positive cells (minimum of 10000 cells per transplanted eye or pancreas). Volocity™ was used for image display and Photoshop CS5 (Adobe) for image assembly.
# [4] = system: beta cells of ob/ob mouse islets; assay: Immunohistochemistry of transplanted eye and pancreas sections after leptin treatment; assay type: in vivo; details: for proliferation of beta cells (insulin and Ki67 staining): end of leptin treatment
# Protocol: Dissected tissues were briefly rinsed with PBS, fixed for 48 h at room temperature using formalin, and dehydrated and embedded in paraffin. Five-micron thick sections mounted on precoated microscope slides were dewaxed by xylene and progressively rehydrated before processing. Insulin was stained using chicken anti-insulin (1:200 dilution, Abcam) followed by goat anti-chicken Alexa™ 488 (1:1000 dilution, Invitrogen) antibodies; blood vessels were stained using rat anti-mouse CD31 (1:50 dilution, BD Pharmingen), followed by incubation of biotinylated goat anti-rat (5 μg/ml, Vector Labs) and amplification with HRP-streptavidin/Alexa™ 647-tyramide (Invitrogen); proliferation was assessed by using mouse anti-human Ki67 (1:50 dilution, Novocastra) together with M.O.M. biotinylated anti-mouse IgG (Vector Labs), and amplified using HRP-streptavidin/Alexa 647-tyramide. Nuclei were stained and slides were preserved by cover glass mounting using ProLong™ Gold Antifade Reagent with DAPI (Invitrogen). Slides were imaged using a BD Pathway 855 system (BD Biosciences). Insulin, CD31, Ki67 and DAPI stainings were imaged using a 20×/0.75NA UApo/340 Olympus objective, and overviews of pancreatic sections stained by hematoxylin/eosin were obtained by montage capture mode using a 4×/0.16NA UPlan SApo Olympus objective.
# AutoQuant X2 (Media Cybernetics) was used for blind deconvolution of all in vivo confocal images before image analysis. Islet volume was analyzed based on the backscatter signal channel, using Matlab™ and the Image Processing Toolbox (Mathworks). The islet “equatorial volume”, i.e. the volume from the top of the islet down to the calculated equator, was used to represent the volume and calculate islet growth. We analyzed a minimum of 3 islet grafts per animal to determine islet growth, with a minimum of 3 mice per category. Individual vessel segments were identified at different imaging time points and their diameter measured using Volocity™ (Perkin Elmer). We established image analysis protocols in Volocity™ for automated analysis of histological sections. […]
# [5] = daily i.p. leptin 1.5 μg/g, during treatment
substance,measurement,setting,value
"leptin: recombinant human leptin (Amylin Pharmaceuticals), hormone encoded by the ob gene",body weight after the end of the treatment period,"[1]; after end of leptin treatment, mass similar to untreated ob/ob about one month later",rapidly increased
same,body weight,"[1]; daily i.p. leptin 1.5 μg/g between 3 and 4 months of age, during treatment",decrease
same,blood glucose,[1]; [5],decrease
same,insulin concentrations (plasma),[1]; [5],decrease
same,appetite,"[1]; daily i.p. leptin, during treatment",visibly reduced
same,"glucose handling in intraperitoneal glucose tolerance test (glucose excursions, AUC)","[2]; ob/ob mice at end of treatment period, 2 mg glucose/g i.p., 16 h fasted",normalized; also recorded: glucose excursions similar to those obtained from age-matched control mice
same,insulin sensitivity,"[2]; ob/ob mice, end of leptin treatment",beneficial impact
same,islet growth after the end of treatment,"[3]; ob/ob mice, after end of leptin or sham treatment",no difference in islet growth
same,islet growth (islet volume) of islet transplants,"[3]; ob/ob mice, during leptin treatment versus sham treatment",reversal of islet growth; also recorded: abolished and partially reversed
same,angiogenesis in the islet grafts,"[3]; ob/ob mice, early stage after leptin treatment",could observe angiogenesis
same,vessel diameter in islet grafts,"[3]; ob/ob mice, leptin treatment, dextran-FITC imaging",rapid effect on blood vessel diameters; also recorded: decrease
same,"granulation of islet cells (reflective optical properties, backscatter)",[3]; transplanted islets in leptin-treated ob/ob mice,regranulation
same,proliferation of beta cells (insulin and Ki67 staining),[4]; engrafted islets (transplanted eye),attenuated; also recorded: virtually abolished
same,average beta cell size,"[4]; following leptin treatment, transplanted or endogenous pancreatic islets, versus age-matched untreated control mice",no significant difference compared to age-matched untreated control mice
same,proliferation of beta cells (insulin and Ki67 staining),[4]; in situ pancreatic islets,attenuated; also recorded: virtually abolished
